Laboratory results as given in patent US10294202B2, “Pyrrolidinones as herbicides” (FMC Corporation, priority 2013, dated 2019).

How the values were obtained:
rice [1] = assay: Test C flooded paddy test; format: in vivo, Oryza sativa; conditions: Flood
Procedure, shortened: (§1)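 Visual ratings from 0, no effect, to 100, complete control, were made against untreated controls after 13–15 greenhouse days. Compounds had gone straight into paddy water 3 cm above the soil, kept at that depth, on 2-leaf-stage plants.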

sedge, umbrella = assay: Test C flooded paddy test; format: in vivo, Cyperus difformis; conditions: Flood
Procedure, shortened: as §1

galium = assay: Test C pre-/postemergence herbicide test; format: in vivo, Galium aparine
Procedure, shortened: (§2)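 Compound solutions contained surfactant in a non-phytotoxic solvent. These were sprayed onto pots of loam/sand sown with seeds, and onto young plants (2 to 18 cm, 1- to 4-leaf) in sphagnum peat–vermiculite mix. Visual injury scores (0 none, 100 complete control) were recorded after 13 to 15 days.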

pigweed = assay: Test C pre-/postemergence herbicide test; format: in vivo, Amaranthus retroflexus
Procedure, shortened: as §2

wheat = assay: Test A pre-/postemergence herbicide test; format: in vivo, Triticum aestivum
Procedure, shortened: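 Formulated compound (non-phytotoxic solvent, surfactant) sprayed pre- onto soil of seeded loam/sand pots or post- onto seedlings at 1–2 leaves; ~10 d greenhouse; 0–100 visual control rating versus untreated.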

wheat (winter wheat) = assay: Test C pre-/postemergence herbicide test; format: in vivo, Triticum aestivum; conditions: for Wheat plant response rating / Plant response rating (scale of 0 to 100), Wheat: Preemergence; for Plant response rating, Wheat: Postemergence
Procedure, shortened: as §2

rice [2] = assay: Test B flooded paddy test; format: in vivo, Oryza sativa; conditions: Flood, scale of 0 to 100 where 0 is no effect and 100 is complete control
Procedure, shortened: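 First, plants reach the 2-leaf stage; next, pots are flooded to 3 cm and compound is delivered into the water; finally, after 13 to 15 greenhouse days at constant depth, injury is graded visually from 0 to 100 against controls.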

foxtail, giant = assay: Test C pre-/postemergence herbicide test; format: in vivo, Setaria faberii
Procedure, shortened: as §2

[3] = 31 g ai/ha, scale of 0 to 100 where 0 is no effect and 100 is complete control, 13 to 15 days
[4] = 62 g ai/ha, scale of 0 to 100 where 0 is no effect and 100 is complete control, 13 to 15 days
[5] = 125 g ai/ha, scale of 0 to 100 where 0 is no effect and 100 is complete control, 13 to 15 days
[6] = 250 g ai/ha, scale of 0 to 100 where 0 is no effect and 100 is complete control, 13 to 15 days
[7] = Preemergence, 31 g ai/ha, scale 0 to 100, 0 is no effect and 100 is complete control
[8] = Preemergence, 62 g ai/ha, scale 0 to 100 (0 no effect, 100 complete control)
[9] = Preemergence, 125 g ai/ha, scale 0 to 100 (0 no effect, 100 complete control)
[10] = Postemergence, 500 g ai/ha, 0 to 100 scale (0 no effect, 100 complete control)
[11] = 31 g ai/ha, scale 0 to 100, 0 is no effect and 100 is complete control
[12] = 62 g ai/ha, scale 0 to 100 (0 no effect, 100 complete control)
[13] = Postemergence, 31 g ai/ha, scale 0 to 100 (0 no effect, 100 complete control)
[14] = Postemergence, 62 g ai/ha, scale 0 (no effect) to 100 (complete control)
[15] = Postemergence, 125 g ai/ha, scale 0 to 100 (0 no effect, 100 complete control)
[16] = Postemergence, 250 g ai/ha, scale 0 to 100 (0 no effect, 100 complete control)

SMILES: O=C1NCC(c2ccc(C(F)(F)F)nc2)C1C(=O)Nc1cccc(F)c1F (racemic) [Compound 263]
- Plant response rating, Rice (rice [1]; [3]): 0
- Plant response rating, Rice (rice [1]; [4]): 0
- Plant response rating, Rice (rice [1]; [5]): 0
- Plant response rating, Rice (rice [1]; [6]): 15
- Plant response rating, Sedge, Umbrella (sedge, umbrella; [3]): 0
- Plant response rating, Sedge, Umbrella (sedge, umbrella; [4]): 0
- Plant response rating, Sedge, Umbrella (sedge, umbrella; [5]): 0
- Plant response rating, Sedge, Umbrella (sedge, umbrella; [6]): 0
- Galium plant response rating (galium; [7]): 70
- Galium plant response rating (galium; [8]): 85
- Plant response rating, Galium (galium; [9]): 85
- Plant response rating (scale of 0 to 100), Galium (galium; Preemergence, 250 g ai/ha): 90
- Pigweed plant response rating (pigweed; [7]): 70
- Pigweed plant response rating (pigweed; [8]): 70
- Plant response rating, Pigweed (pigweed; [9]): 98
- Plant response rating (scale of 0 to 100), Pigweed (pigweed; Preemergence, 250 g ai/ha): 95
- Plant response rating, Wheat (wheat; [10]): 60
- Plant response rating, Wheat (wheat; Preemergence, 125 g ai/ha, 0 to 100 scale where 0 is no effect and 100 is complete control): 0
- Plant response rating, Wheat (wheat; preemergence, 500 g ai/ha, 0 to 100 scale, 0 is no effect and 100 is complete control): 60
- Wheat plant response rating (wheat (winter wheat); [11]): 0
- Wheat plant response rating (wheat (winter wheat); [12]): 10
- Plant response rating (scale of 0 to 100), Wheat (wheat (winter wheat); 250 g ai/ha): 50
- Plant response rating, Rice (rice [2]; 1000 g ai/ha): 0
- Foxtail, Giant plant response rating (foxtail, giant; [7]): 65
- Foxtail, Giant plant response rating (foxtail, giant; [8]): 95
- Plant response rating, Foxtail, Giant (foxtail, giant; [9]): 98
- Plant response rating (scale of 0 to 100), Foxtail, Giant (foxtail, giant; Preemergence, 250 g ai/ha): 98

SMILES: O=C1NCC(c2cccc(Cl)c2)C1C(=O)Nc1cccc(F)c1F (racemic) [Compound 275]
- Plant response rating, Rice (rice [1]; [4]): 0
- Plant response rating, Rice (rice [1]; [5]): 0
- Plant response rating, Rice (rice [1]; [6]): 10
- Plant response rating, Rice (rice [1]; 500 g ai/ha, scale 0 to 100): 10
- Plant response rating, Sedge, Umbrella (sedge, umbrella; [4]): 0
- Plant response rating, Sedge, Umbrella (sedge, umbrella; [5]): 0
- Plant response rating, Sedge, Umbrella (sedge, umbrella; [6]): 0
- Plant response rating, Sedge, Umbrella (sedge, umbrella; 500 g ai/ha, scale 0 to 100): 0
- Plant response rating, Galium (galium; [13]): 50
- Plant response rating, Galium (galium; [14]): 55
- Plant response rating, Galium (galium; [15]): 75
- Plant response rating, Galium (galium; [16]): 80
- Galium plant response rating (galium; [7]): 0
- Galium plant response rating (galium; [8]): 90
- Plant response rating, Galium (galium; [9]): 30
- Plant response rating (scale of 0 to 100), Galium (galium; Preemergence, 250 g ai/ha): 85
- Plant response rating, Pigweed (pigweed; [13]): 5
- Plant response rating, Pigweed (pigweed; [14]): 5
- Plant response rating, Pigweed (pigweed; [15]): 30
- Plant response rating, Pigweed (pigweed; [16]): 35
- Pigweed plant response rating (pigweed; [7]): 0
- Pigweed plant response rating (pigweed; [8]): 0
- Plant response rating, Pigweed (pigweed; [9]): 10
- Plant response rating (scale of 0 to 100), Pigweed (pigweed; Preemergence, 250 g ai/ha): 40
- Plant response rating, Wheat (wheat; Postemergence, 125 g ai/ha, visual rating on 0 to 100 scale (0 no effect, 100 complete control), approx. 10 days): 40
- Plant response rating, Wheat (wheat; [10]): 70
- Plant response rating, Wheat (wheat (winter wheat); 31 g ai/ha, scale 0 to 100 (0 no effect, 100 complete control)): 0
- Plant response rating, Wheat (wheat (winter wheat); 62 g ai/ha, scale 0 (no effect) to 100 (complete control)): 0
- Plant response rating, Wheat (wheat (winter wheat); 125 g ai/ha, scale 0 to 100 (0 no effect, 100 complete control)): 0
- Plant response rating, Wheat (wheat (winter wheat); 250 g ai/ha, scale 0 to 100 (0 no effect, 100 complete control)): 0
- Wheat plant response rating (wheat (winter wheat); [11]): 5
- Wheat plant response rating (wheat (winter wheat); [12]): 45
- Plant response rating (scale of 0 to 100), Wheat (wheat (winter wheat); 250 g ai/ha): 90
- Plant response rating, Rice (rice [2]; 500 g ai/ha): 0
- Plant response rating, Foxtail, Giant (foxtail, giant; [13]): 10
- Plant response rating, Foxtail, Giant (foxtail, giant; [14]): 75
- Plant response rating, Foxtail, Giant (foxtail, giant; [15]): 35
- Plant response rating, Foxtail, Giant (foxtail, giant; [16]): 90
- Foxtail, Giant plant response rating (foxtail, giant; [7]): 90
- Foxtail, Giant plant response rating (foxtail, giant; [8]): 95
- Plant response rating, Foxtail, Giant (foxtail, giant; [9]): 98
- Plant response rating (scale of 0 to 100), Foxtail, Giant (foxtail, giant; Preemergence, 250 g ai/ha): 100
